Data from patent US20130330244A1, “COMPOSITIONS AND METHODS FOR TOPICAL NITRIC OXIDE GENERATION” (NIOXX LLC, priority 2011, published 2013).

What was measured:
[1] = Preservation of color and viscosity of the composition over time; assay type: physicochemical; conditions: used instead of ascorbic acid in the gel
Method: Gels were prepared according to the mixing procedure of Example 1, but with amounts of the ingredients to achieve molarities of those ingredients as shown below. Euxyl® PE9010 is a preservative having phenoxyethanol as the active ingredient (Schülke and Mayr, 30 Two Bridges Road Suite 225, Fairfield, N.J. 07004, USA).

[2] = cited from earlier work

Structure (SMILES): CCOC1=C(O)C(=O)O[C@@H]1[C@@H](O)CO [3-O-ethyl ascorbic acid]
- color and viscosity stability of composition [1]: preserves the color and viscosity of the composition over long periods of time

Structure (SMILES): O=NO [Nitrous acid]
- pKa [2]: 3.37
